Species: Rattus norvegicus
Test: DrugMatrix - Regimen: Daily Repeat
Assay type: toxicity, organism-based, Sprague-Dawley
Design: regimen Daily Repeat, gender Male, age 6-8 weeks
Conditions: in vivo, po, route oral GAVAGE, vehicle 100 % WATER; for ABSOLUTE BASOPHIL / ABSOLUTE EOSINOPHIL / ABSOLUTE LYMPHOCYTE / ABSOLUTE MONOCYTE / ABSOLUTE SEGMENTED NEUTROPHIL / BASOPHIL / EOSINOPHIL / ERYTHROCYTE COUNT / HEMATOCRIT / HEMOGLOBIN / LEUKOCYTE COUNT / LYMPHOCYTE / MEAN CORPUSCULAR HEMOGLOBIN / MEAN CORPUSCULAR HEMOGLOBIN CONCENTRATION / MEAN CORPUSCULAR VOLUME / MONOCYTE / NEUTROPHIL / NUCLEATED RED BLOOD CELLS / PLATELET COUNT: tissue Blood; for ALANINE AMINOTRANSFERASE / ALBUMIN / ALKALINE PHOSPHATASE / ASPARTATE AMINOTRANSFERASE / BLOOD UREA NITROGEN / CARBON DIOXIDE / CHLORIDE / CHOLESTEROL / CREATINE PHOSPHOKINASE / CREATININE / GLUCOSE / LACTATE DEHYDROGENASE / LIPASE / PHOSPHORUS / POTASSIUM / SODIUM / TOTAL BILIRUBIN / TOTAL PROTEIN / URIC ACID: tissue Plasma
[1] = 0 mg/kg, 72 h, dose level Control, time 3 day
[2] = 0 mg/kg, 120 h, dose level Control, time 5 day
[3] = 3525 mg/kg, 72 h, dose level High, time 3 day
[4] = 3525 mg/kg, 120 h, dose level High, time 5 day

For OCCO [ETHYLENE GLYCOL], the “ABSOLUTE BASOPHIL” value [1] was 0 CELLS/uL, the “ABSOLUTE EOSINOPHIL” value [1] was 0 CELLS/uL and the “ABSOLUTE LYMPHOCYTE” value [1] was 7802.17 CELLS/uL. For the same molecule, the “ABSOLUTE MONOCYTE” value [1] was 13.5 CELLS/uL, the “ABSOLUTE SEGMENTED NEUTROPHIL” value [1] was 617.67 CELLS/uL and the BASOPHIL [1] was 0%. The EOSINOPHIL [1] was 0%, the “ERYTHROCYTE COUNT” value [1] was 5.35 x10E6/uL and the HEMATOCRIT [1] was 33.02%. The HEMOGLOBIN [1] was 12.88 G/DL, the “LEUKOCYTE COUNT” value [1] was 8.43 x10E3/uL and the LYMPHOCYTE [1] was 92.67%. For the same molecule, the “MEAN CORPUSCULAR HEMOGLOBIN” value [1] was 24.12 pg, the “MEAN CORPUSCULAR HEMOGLOBIN CONCENTRATION” value [1] was 39.03 G/DL and the “MEAN CORPUSCULAR VOLUME” value [1] was 61.8 fL. For the same molecule, the MONOCYTE [1] was 0.17%, the NEUTROPHIL [1] was 7.17% and the “NUCLEATED RED BLOOD CELLS” value [1] was 0 /100WBC. The “PLATELET COUNT” value [1] was 1124.83 x10E3/uL, the “ALANINE AMINOTRANSFERASE” value [1] was 54.17 u/L and the ALBUMIN [1] was 4.07 G/DL. The “ALKALINE PHOSPHATASE” value [1] was 383.83 u/L, the “ASPARTATE AMINOTRANSFERASE” value [1] was 82.17 u/L and the “BLOOD UREA NITROGEN” value [1] was 13.67 mg/dL. The “CARBON DIOXIDE” value [1] was 31 mmol/L, the CHLORIDE [1] was 100.83 MEQ/L and the CHOLESTEROL [1] was 65.17 mg/dL. For the same molecule, the “CREATINE PHOSPHOKINASE” value [1] was 228.33 u/L, the CREATININE [1] was 0.12 mg/dL and the GLUCOSE [1] was 148 mg/dL. The “LACTATE DEHYDROGENASE” value [1] was 97.83 u/L, the LIPASE [1] was 9.17 u/L and the PHOSPHORUS [1] was 9.75 mg/dL. The POTASSIUM [1] was 5.85 MEQ/L, the SODIUM [1] was 147.02 MEQ/L and the “TOTAL BILIRUBIN” value [1] was 0.18 mg/dL. The “TOTAL PROTEIN” value [1] was 6.1 G/DL, the “URIC ACID” value [1] was 0.5 mg/dL and the “ABSOLUTE BASOPHIL” value [2] was 0 CELLS/uL. For the same molecule, the “ABSOLUTE EOSINOPHIL” value [2] was 0 CELLS/uL, the “ABSOLUTE LYMPHOCYTE” value [2] was 10538 CELLS/uL and the “ABSOLUTE MONOCYTE” value [2] was 15.83 CELLS/uL. For the same molecule, the “ABSOLUTE SEGMENTED NEUTROPHIL” value [2] was 762.83 CELLS/uL, the BASOPHIL [2] was 0% and the EOSINOPHIL [2] was 0%. For the same molecule, the “ERYTHROCYTE COUNT” value [2] was 5.49 x10E6/uL, the HEMATOCRIT [2] was 34.63% and the HEMOGLOBIN [2] was 13.72 G/DL. For the same molecule, the “LEUKOCYTE COUNT” value [2] was 11.32 x10E3/uL, the LYMPHOCYTE [2] was 92.67% and the “MEAN CORPUSCULAR HEMOGLOBIN” value [2] was 24.97 pg. The “MEAN CORPUSCULAR HEMOGLOBIN CONCENTRATION” value [2] was 39.57 G/DL, the “MEAN CORPUSCULAR VOLUME” value [2] was 63.05 fL and the MONOCYTE [2] was 0.17%. For the same molecule, the NEUTROPHIL [2] was 7.17%, the “NUCLEATED RED BLOOD CELLS” value [2] was 0.17 /100WBC and the “PLATELET COUNT” value [2] was 802 x10E3/uL. For the same molecule, the “ALANINE AMINOTRANSFERASE” value [2] was 50.5 u/L, the ALBUMIN [2] was 4.07 G/DL and the “ALKALINE PHOSPHATASE” value [2] was 336.83 u/L. The “ASPARTATE AMINOTRANSFERASE” value [2] was 81 u/L, the “BLOOD UREA NITROGEN” value [2] was 14.17 mg/dL and the “CARBON DIOXIDE” value [2] was 32 mmol/L. The CHLORIDE [2] was 98.33 MEQ/L, the CHOLESTEROL [2] was 69.17 mg/dL and the “CREATINE PHOSPHOKINASE” value [2] was 253.33 u/L. The CREATININE [2] was 0.13 mg/dL, the GLUCOSE [2] was 153.67 mg/dL and the “LACTATE DEHYDROGENASE” value [2] was 157 u/L. For the same molecule, the LIPASE [2] was 9 u/L, the PHOSPHORUS [2] was 10.78 mg/dL and the POTASSIUM [2] was 6.11 MEQ/L. For the same molecule, the SODIUM [2] was 144.57 MEQ/L, the “TOTAL BILIRUBIN” value [2] was 0.15 mg/dL and the “TOTAL PROTEIN” value [2] was 6.05 G/DL. For the same molecule, the “URIC ACID” value [2] was 0.73 mg/dL, the “ABSOLUTE BASOPHIL” value [3] was 0 CELLS/uL and the “ABSOLUTE EOSINOPHIL” value [3] was 0 CELLS/uL. For the same molecule, the “ABSOLUTE LYMPHOCYTE” value [3] was 6464 CELLS/uL, the “ABSOLUTE MONOCYTE” value [3] was 70.67 CELLS/uL and the “ABSOLUTE SEGMENTED NEUTROPHIL” value [3] was 598.67 CELLS/uL. The BASOPHIL [3] was 0%, the EOSINOPHIL [3] was 0% and the “ERYTHROCYTE COUNT” value [3] was 5.57 x10E6/uL. The HEMATOCRIT [3] was 33.43%, the HEMOGLOBIN [3] was 13.07 G/DL and the “LEUKOCYTE COUNT” value [3] was 7.13 x10E3/uL. For the same molecule, the LYMPHOCYTE [3] was 90.67%, the “MEAN CORPUSCULAR HEMOGLOBIN” value [3] was 23.5 pg and the “MEAN CORPUSCULAR HEMOGLOBIN CONCENTRATION” value [3] was 39.1 G/DL. For the same molecule, the “MEAN CORPUSCULAR VOLUME” value [3] was 60.17 fL, the MONOCYTE [3] was 1% and the NEUTROPHIL [3] was 8.33%. For the same molecule, the “NUCLEATED RED BLOOD CELLS” value [3] was 0 /100WBC, the “PLATELET COUNT” value [3] was 918.33 x10E3/uL and the “ALANINE AMINOTRANSFERASE” value [3] was 68 u/L. For the same molecule, the ALBUMIN [3] was 3.93 G/DL, the “ALKALINE PHOSPHATASE” value [3] was 332 u/L and the “ASPARTATE AMINOTRANSFERASE” value [3] was 88.33 u/L. The “BLOOD UREA NITROGEN” value [3] was 12.33 mg/dL, the “CARBON DIOXIDE” value [3] was 36 mmol/L and the CHLORIDE [3] was 97.67 MEQ/L. For the same molecule, the CHOLESTEROL [3] was 61 mg/dL, the “CREATINE PHOSPHOKINASE” value [3] was 279 u/L and the CREATININE [3] was 0.1 mg/dL. For the same molecule, the GLUCOSE [3] was 140 mg/dL, the “LACTATE DEHYDROGENASE” value [3] was 110.33 u/L and the LIPASE [3] was 9 u/L. The PHOSPHORUS [3] was 9 mg/dL, the POTASSIUM [3] was 5.82 MEQ/L and the SODIUM [3] was 143.77 MEQ/L. For the same molecule, the “TOTAL BILIRUBIN” value [3] was 0.17 mg/dL, the “TOTAL PROTEIN” value [3] was 5.7 G/DL and the “URIC ACID” value [3] was 0.77 mg/dL. For the same molecule, the “ABSOLUTE BASOPHIL” value [4] was 0 CELLS/uL, the “ABSOLUTE EOSINOPHIL” value [4] was 0 CELLS/uL and the “ABSOLUTE LYMPHOCYTE” value [4] was 7667.33 CELLS/uL. The “ABSOLUTE MONOCYTE” value [4] was 0 CELLS/uL, the “ABSOLUTE SEGMENTED NEUTROPHIL” value [4] was 399.33 CELLS/uL and the BASOPHIL [4] was 0%. For the same molecule, the EOSINOPHIL [4] was 0%, the “ERYTHROCYTE COUNT” value [4] was 5.77 x10E6/uL and the HEMATOCRIT [4] was 35.47%. The HEMOGLOBIN [4] was 14.17 G/DL, the “LEUKOCYTE COUNT” value [4] was 8.07 x10E3/uL and the LYMPHOCYTE [4] was 95.33%. For the same molecule, the “MEAN CORPUSCULAR HEMOGLOBIN” value [4] was 24.53 pg, the “MEAN CORPUSCULAR HEMOGLOBIN CONCENTRATION” value [4] was 39.97 G/DL and the “MEAN CORPUSCULAR VOLUME” value [4] was 61.43 fL. The MONOCYTE [4] was 0%, the NEUTROPHIL [4] was 4.67% and the “NUCLEATED RED BLOOD CELLS” value [4] was 0 /100WBC. The “PLATELET COUNT” value [4] was 1091.67 x10E3/uL, the “ALANINE AMINOTRANSFERASE” value [4] was 54 u/L and the ALBUMIN [4] was 4.1 G/DL. The “ALKALINE PHOSPHATASE” value [4] was 328.33 u/L, the “ASPARTATE AMINOTRANSFERASE” value [4] was 80 u/L and the “BLOOD UREA NITROGEN” value [4] was 14 mg/dL. The “CARBON DIOXIDE” value [4] was 35.67 mmol/L, the CHLORIDE [4] was 96.33 MEQ/L and the CHOLESTEROL [4] was 66 mg/dL. For the same molecule, the “CREATINE PHOSPHOKINASE” value [4] was 238.33 u/L, the CREATININE [4] was 0.14 mg/dL and the GLUCOSE [4] was 145 mg/dL. The “LACTATE DEHYDROGENASE” value [4] was 115.67 u/L, the LIPASE [4] was 9.33 u/L and the PHOSPHORUS [4] was 9.87 mg/dL. The POTASSIUM [4] was 6.09 MEQ/L, the SODIUM [4] was 144 MEQ/L and the “TOTAL BILIRUBIN” value [4] was 0.17 mg/dL. For the same molecule, the “TOTAL PROTEIN” value [4] was 6.17 G/DL and the “URIC ACID” value [4] was 0.73 mg/dL.

Source: ChEMBL document CHEMBL3885881, “DrugMatrix”
